Common to all, as to assay type: functional
In one experiment the test system is Cyberlindnera jadinii. Nature of the experiment: Antifungal activity against Candida utilis ATCC9950 assessed as growth inhibition incubated at 35 degC for 24 hrs by micro broth dilution method. To be noted: Williopsis jadinii, ATCC9950, 24 h.
For a further experiment, the system named is Pseudomonas aeruginosa. Nature of the experiment: Antibacterial activity against Pseudomonas aeruginosa ATCC27853 assessed as growth inhibition incubated at 37 degC for 24 hrs by micro broth dilution method. The conditions noted are these: ATCC27853, 24 h. A general note: In broth dilution the organism is exposed to a series of concentrations in liquid medium.

Another experiment concerns Escherichia coli. Nature of the experiment: Antibacterial activity against Escherichia coli JM109 assessed as growth inhibition incubated at 37 degC for 24 hrs by micro broth dilution method. The conditions noted are these: JM109, 24 h.
Experiment [1] is described as follows: Antifungal activity against Candida mycoderma ATCC9888 assessed as growth inhibition incubated at 35 degC for 24 hrs by micro broth dilution method. The conditions noted are these: Kregervanrija fluxuum.
Experiment [2] is described as follows: Antibacterial activity against Bacillus proteus ATCC13315 assessed as growth inhibition incubated at 37 degC for 24 hrs by micro broth dilution method. To be noted: ATCC13315, 24 h.
Experiment [3] has as its system Staphylococcus aureus. In words: Antibacterial activity against Staphylococcus aureus ATCC25923 assessed as growth inhibition incubated at 37 degC for 24 hrs by micro broth dilution method. The conditions noted are these: ATCC25923, 24 h.
For a further experiment, the system named is Saccharomyces cerevisiae. Nature of the experiment: Antifungal activity against Saccharomyces cerevisiae ATCC9763 assessed as growth inhibition incubated at 35 degC for 24 hrs by micro broth dilution method. To be noted: ATCC9763, 24 h.
The test system of experiment [4] is Staphylococcus aureus. Nature of the experiment: Antibacterial activity against methicillin resistant Staphylococcus aureus N315 assessed as growth inhibition incubated at 37 degC for 24 hrs by micro broth dilution method. The conditions noted are these: N315, 24 h.
A further experiment deals with Candida albicans. In words: Antifungal activity against Candida albicans ATCC10231 assessed as growth inhibition incubated at 35 degC for 24 hrs by micro broth dilution method. To be noted: ATCC10231, 24 h.
The test system of another experiment is Aspergillus flavus. Nature of the experiment: Antifungal activity against Aspergillus flavus ATCC204304 assessed as growth inhibition incubated at 35 degC for 24 hrs by micro broth dilution method. To be noted: ATCC204304, 24 h.
In a further experiment the test system is Bacillus subtilis. In words: Antibacterial activity against Bacillus subtilis ATCC6633 assessed as growth inhibition incubated at 37 degC for 24 hrs by micro broth dilution method. The conditions noted are these: ATCC6633, 24 h.
Experiment [5] can be described thus: Antibacterial activity against Eberthella typhosa ATCC14028 assessed as growth inhibition incubated at 37 degC for 24 hrs by micro broth dilution method. The conditions noted are these: ATCC14028, 24 h.
The test system of another experiment is Micrococcus luteus. In words: Antibacterial activity against Micrococcus luteus ATCC4698 assessed as growth inhibition incubated at 37 degC for 24 hrs by micro broth dilution method. To be noted: ATCC4698, 24 h.

SMILES strings stand for the structures. In brackets after ≈: the same amount, converted by molar mass.

`O=C(O)c1cn(C2CC2)c2cc(N3CCN(CC(O)CSc4ncn(Cc5ccc(Cl)cc5Cl)n4)CC3)c(F)cc2c1=O` (configuration not stated): the MIC80 in the experiment with Cyberlindnera jadinii is 4 µg/mL (≈ 6.18 µM); in experiment [1], 16 µg/mL (≈ 24.7 µM); in the experiment with Saccharomyces cerevisiae it was 64 µg/mL (≈ 98.8 µM); with Candida albicans, 32 µg/mL (≈ 49.4 µM); in the experiment with Aspergillus flavus it was 16 µg/mL (≈ 24.7 µM). The MIC with Pseudomonas aeruginosa came out at 4 µg/mL (≈ 6.18 µM); in the experiment on Escherichia coli, 2 µg/mL (≈ 3.09 µM); in experiment [2], 2 µg/mL (≈ 3.09 µM); with Staphylococcus aureus [3], 1 µg/mL (≈ 1.54 µM); in the experiment with Staphylococcus aureus [4], 1 µg/mL (≈ 1.54 µM); in the experiment on Bacillus subtilis, 2 µg/mL (≈ 3.09 µM). The MIC was determined as 1 µg/mL (≈ 1.54 µM) in [5] and 2 µg/mL (≈ 3.09 µM) with Micrococcus luteus.

As to `Sc1ncn(Cc2ccc(Cl)c(Cl)c2)n1`, the MIC80 was 512 µg/mL (≈ 1970 µM) in the experiment on Cyberlindnera jadinii; 256 µg/mL (≈ 984 µM) in experiment [1]; 512 µg/mL (≈ 1970 µM) in the experiment on Saccharomyces cerevisiae; 512 µg/mL (≈ 1970 µM) in the experiment with Candida albicans; 512 µg/mL (≈ 1970 µM) in the experiment on Aspergillus flavus. Moreover, the MIC with Pseudomonas aeruginosa was 512 µg/mL (≈ 1970 µM); in the experiment on Escherichia coli, 256 µg/mL (≈ 984 µM); in [2] it was 512 µg/mL (≈ 1970 µM); in the experiment with Staphylococcus aureus [3], 256 µg/mL (≈ 984 µM); with Staphylococcus aureus [4], 128 µg/mL (≈ 492 µM); in the experiment on Bacillus subtilis, 512 µg/mL (≈ 1970 µM). Also, the MIC in [5] turned out to be 512 µg/mL (≈ 1970 µM); with Micrococcus luteus it was 256 µg/mL (≈ 984 µM).

As for `O=C(O)c1cn(C2CC2)c2cc(N3CCN(CC(O)Cn4cnc(S)n4)CC3)c(F)cc2c1=O` (configuration not stated), the MIC80 is 128 µg/mL (≈ 262 µM) in the experiment with Cyberlindnera jadinii; 32 µg/mL (≈ 65.5 µM) in [1]; 64 µg/mL (≈ 131 µM) in the experiment on Saccharomyces cerevisiae; 8 µg/mL (≈ 16.4 µM) in the experiment on Candida albicans; 64 µg/mL (≈ 131 µM) in the experiment on Aspergillus flavus. For the same compound, the MIC was found to be 4 µg/mL (≈ 8.19 µM) with Pseudomonas aeruginosa; 8 µg/mL (≈ 16.4 µM) in the experiment on Escherichia coli; 4 µg/mL (≈ 8.19 µM) in experiment [2]; 2 µg/mL (≈ 4.09 µM) with Staphylococcus aureus [3]; 16 µg/mL (≈ 32.8 µM) in the experiment with Staphylococcus aureus [4]; 4 µg/mL (≈ 8.19 µM) in the experiment on Bacillus subtilis. In addition, the results for the MIC (in experiment [5]; in the experiment with Micrococcus luteus) were 1 µg/mL (≈ 2.05 µM) and 16 µg/mL (≈ 32.8 µM), respectively.

Regarding `Cn1ccnc1SCC(O)CN1CCN(c2cc3c(cc2F)c(=O)c(C(=O)O)cn3C2CC2)CC1` (configuration not stated), the MIC80 came out at 128 µg/mL (≈ 255 µM) in the experiment with Cyberlindnera jadinii; 16 µg/mL (≈ 31.9 µM) in experiment [1]; 32 µg/mL (≈ 63.8 µM) in the experiment with Saccharomyces cerevisiae; 4 µg/mL (≈ 7.97 µM) in the experiment with Candida albicans; 64 µg/mL (≈ 128 µM) in the experiment on Aspergillus flavus. For the same compound, the minimum inhibitory concentration (MIC) came out at 8 µg/mL (≈ 15.9 µM) in the experiment on Pseudomonas aeruginosa; 8 µg/mL (≈ 15.9 µM) in the experiment with Escherichia coli; 2 µg/mL (≈ 3.99 µM) in [2]; 2 µg/mL (≈ 3.99 µM) in the experiment on Staphylococcus aureus [3]; 2 µg/mL (≈ 3.99 µM) in the experiment on Staphylococcus aureus [4]; 4 µg/mL (≈ 7.97 µM) in the experiment on Bacillus subtilis. The MIC in [5] amounted to 1 µg/mL (≈ 1.99 µM); with Micrococcus luteus it was 4 µg/mL (≈ 7.97 µM).

`O=C(O)c1cn(C2CC2)c2cc(N3CCN(CC(O)CSc4ncn(Cc5ccc(Cl)c(Cl)c5)n4)CC3)c(F)cc2c1=O` (configuration not stated): the MIC80 in the experiment on Cyberlindnera jadinii is 2 µg/mL (≈ 3.09 µM); in experiment [1], 8 µg/mL (≈ 12.4 µM); with Saccharomyces cerevisiae, 32 µg/mL (≈ 49.4 µM); in the experiment on Candida albicans it was 16 µg/mL (≈ 24.7 µM); in the experiment on Aspergillus flavus, 16 µg/mL (≈ 24.7 µM). Besides, the MIC with Pseudomonas aeruginosa came out at 2 µg/mL (≈ 3.09 µM); with Escherichia coli, 1 µg/mL (≈ 1.54 µM); in [2], 0.5 µg/mL (≈ 0.772 µM); in the experiment with Staphylococcus aureus [3] it was 0.5 µg/mL (≈ 0.772 µM); in the experiment on Staphylococcus aureus [4], 1 µg/mL (≈ 1.54 µM); in the experiment on Bacillus subtilis, 0.5 µg/mL (≈ 0.772 µM). Also, the MIC in experiment [5] is 0.5 µg/mL (≈ 0.772 µM); in the experiment on Micrococcus luteus it was 1 µg/mL (≈ 1.54 µM).

Turning to `CCn1cc(C(=O)O)c(=O)c2cc(F)c(N3CCNCC3)cc21` [NORFLOXACIN], the MIC in the experiment with Pseudomonas aeruginosa was determined as 4 µg/mL (≈ 12.5 µM); with Escherichia coli, 2 µg/mL (≈ 6.26 µM); in [2], 8 µg/mL (≈ 25.1 µM); in the experiment on Staphylococcus aureus [3], 2 µg/mL (≈ 6.26 µM); in the experiment with Staphylococcus aureus [4] it was 2 µg/mL (≈ 6.26 µM); in the experiment with Bacillus subtilis, 1 µg/mL (≈ 3.13 µM). For the same compound, the MIC in [5] was determined as 1 µg/mL (≈ 3.13 µM); with Micrococcus luteus it was 2 µg/mL (≈ 6.26 µM).

Take `OC(Cn1cncn1)(Cn1cncn1)c1ccc(F)cc1F` [FLUCONAZOLE]: the MIC80 was 8 µg/mL (≈ 26.1 µM) in the experiment on Cyberlindnera jadinii; 4 µg/mL (≈ 13.1 µM) in [1]; 16 µg/mL (≈ 52.2 µM) in the experiment with Saccharomyces cerevisiae; 1 µg/mL (≈ 3.27 µM) in the experiment with Candida albicans; 256 µg/mL (≈ 836 µM) in the experiment on Aspergillus flavus.

Regarding `O=C(O)c1cn(C2CC2)c2cc(N3CCN(CC4CO4)CC3)c(F)cc2c1=O` (configuration not stated), the MIC80 in the experiment with Cyberlindnera jadinii stood at 2 µg/mL (≈ 5.16 µM); in experiment [1], 1 µg/mL (≈ 2.58 µM); in the experiment on Saccharomyces cerevisiae it was 1 µg/mL (≈ 2.58 µM); in the experiment with Candida albicans it was 2 µg/mL (≈ 5.16 µM); in the experiment on Aspergillus flavus it was 1 µg/mL (≈ 2.58 µM). For the same compound, the MIC in the experiment on Pseudomonas aeruginosa turned out to be 2 µg/mL (≈ 5.16 µM); with Escherichia coli, 1 µg/mL (≈ 2.58 µM); in experiment [2], 4 µg/mL (≈ 10.3 µM); in the experiment with Staphylococcus aureus [3], 4 µg/mL (≈ 10.3 µM); in the experiment with Staphylococcus aureus [4] it was 1 µg/mL (≈ 2.58 µM); in the experiment with Bacillus subtilis it was 8 µg/mL (≈ 20.6 µM). The MIC (in [5]; with Micrococcus luteus) was 2 µg/mL (≈ 5.16 µM) throughout.

For `O=C(O)c1cn(C2CC2)c2c(Cl)c(N3CCC(NCC4CO4)C3)c(F)cc2c1=O` (configuration not stated), the MIC80 in the experiment on Cyberlindnera jadinii came out at 4 µg/mL (≈ 9.48 µM); in experiment [1], 2 µg/mL (≈ 4.74 µM); in the experiment on Saccharomyces cerevisiae, 0.25 µg/mL (≈ 0.593 µM); with Candida albicans, 2 µg/mL (≈ 4.74 µM); in the experiment on Aspergillus flavus it was 0.5 µg/mL (≈ 1.19 µM). The MIC with Pseudomonas aeruginosa worked out at 0.5 µg/mL (≈ 1.19 µM); in the experiment on Escherichia coli it was 0.5 µg/mL (≈ 1.19 µM); in experiment [2], 0.25 µg/mL (≈ 0.593 µM); in the experiment with Staphylococcus aureus [3], 0.5 µg/mL (≈ 1.19 µM); with Bacillus subtilis it was 0.25 µg/mL (≈ 0.593 µM); in the experiment with Micrococcus luteus, 0.25 µg/mL (≈ 0.593 µM).

A word on the MIC80: it is an inhibitory concentration at the 80% level, which refers to growth in some studies and to a panel of isolates in others. The MIC is the lowest concentration found to suppress growth.

Source of the values: ChEMBL document CHEMBL3739277, “Design, synthesis, and antibacterial evaluation of novel azolylthioether quinolones as MRSA DNA intercalators” (2015).
